# pKi: −log10 of the molar value.
# How the values were obtained:
# [1] = target: Rho kinase 1 (Homo sapiens, UniProt Q13464); experiment: In vitro Rho kinase inhibitory activity assay (ADP-Glo kit, Myelin Basic Protein substrate); format: biochemical; details: 10 μM ATP, 25° C., read-out: ROCK1 inhibitory activity (Ki, range of activity)
# In short: (§1)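 First, compound was incubated with either Rho kinase isoform for 30 mins at 25 °C; next, ATP was added to 10 μM final with 2.5 μM Myelin Basic Protein substrate; after 1 hour, ADP formed was detected by ADP-Glo luminescence. Dose-response data yielded IC50, converted to Ki using Cheng-Prusoff.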
# [2] = target: Rho kinase 2 (Homo sapiens, UniProt O75116); experiment: as above; format: biochemical; details: 10 μM ATP, 25° C., read-out: ROCK2 inhibitory activity (Ki, range of activity)
# In short: as §1
# Rho kinase 2, sequence (O75116 whole entry): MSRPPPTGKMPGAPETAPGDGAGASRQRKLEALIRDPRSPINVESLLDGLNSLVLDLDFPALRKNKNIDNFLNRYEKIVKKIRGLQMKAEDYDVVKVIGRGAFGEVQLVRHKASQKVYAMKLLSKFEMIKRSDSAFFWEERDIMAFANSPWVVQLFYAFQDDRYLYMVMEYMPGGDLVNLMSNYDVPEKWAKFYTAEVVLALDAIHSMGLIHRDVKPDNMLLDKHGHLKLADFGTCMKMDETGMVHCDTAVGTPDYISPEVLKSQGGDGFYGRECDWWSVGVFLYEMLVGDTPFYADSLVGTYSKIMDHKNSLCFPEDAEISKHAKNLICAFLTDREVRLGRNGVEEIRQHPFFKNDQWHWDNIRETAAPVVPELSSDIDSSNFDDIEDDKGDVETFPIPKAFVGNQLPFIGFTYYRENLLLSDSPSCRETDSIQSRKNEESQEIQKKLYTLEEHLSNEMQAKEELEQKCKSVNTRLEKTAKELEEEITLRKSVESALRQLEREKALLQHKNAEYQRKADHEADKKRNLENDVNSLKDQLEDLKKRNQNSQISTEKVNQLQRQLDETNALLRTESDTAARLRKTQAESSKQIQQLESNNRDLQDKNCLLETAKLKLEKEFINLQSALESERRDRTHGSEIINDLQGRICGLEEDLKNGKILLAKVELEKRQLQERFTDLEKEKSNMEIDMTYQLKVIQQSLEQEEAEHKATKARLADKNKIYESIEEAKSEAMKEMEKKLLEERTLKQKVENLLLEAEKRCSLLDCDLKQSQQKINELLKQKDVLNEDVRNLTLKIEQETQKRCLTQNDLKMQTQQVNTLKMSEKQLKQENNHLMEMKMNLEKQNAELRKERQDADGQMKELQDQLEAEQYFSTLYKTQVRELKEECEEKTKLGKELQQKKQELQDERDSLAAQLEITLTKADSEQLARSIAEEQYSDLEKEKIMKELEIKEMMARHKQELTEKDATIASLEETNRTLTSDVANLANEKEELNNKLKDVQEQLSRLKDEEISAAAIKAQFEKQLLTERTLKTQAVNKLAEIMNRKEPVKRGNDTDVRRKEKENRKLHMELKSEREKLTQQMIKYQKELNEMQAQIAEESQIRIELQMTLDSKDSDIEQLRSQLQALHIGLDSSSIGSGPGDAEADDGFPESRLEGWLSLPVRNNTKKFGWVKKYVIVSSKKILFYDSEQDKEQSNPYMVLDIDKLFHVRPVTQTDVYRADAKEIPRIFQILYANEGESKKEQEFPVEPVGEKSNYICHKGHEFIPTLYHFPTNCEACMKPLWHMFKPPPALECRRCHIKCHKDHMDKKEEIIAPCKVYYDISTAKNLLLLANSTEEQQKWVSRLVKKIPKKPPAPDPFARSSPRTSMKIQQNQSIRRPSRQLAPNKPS
# Rho kinase 1, sequence (Q13464 whole entry, canonical isoform): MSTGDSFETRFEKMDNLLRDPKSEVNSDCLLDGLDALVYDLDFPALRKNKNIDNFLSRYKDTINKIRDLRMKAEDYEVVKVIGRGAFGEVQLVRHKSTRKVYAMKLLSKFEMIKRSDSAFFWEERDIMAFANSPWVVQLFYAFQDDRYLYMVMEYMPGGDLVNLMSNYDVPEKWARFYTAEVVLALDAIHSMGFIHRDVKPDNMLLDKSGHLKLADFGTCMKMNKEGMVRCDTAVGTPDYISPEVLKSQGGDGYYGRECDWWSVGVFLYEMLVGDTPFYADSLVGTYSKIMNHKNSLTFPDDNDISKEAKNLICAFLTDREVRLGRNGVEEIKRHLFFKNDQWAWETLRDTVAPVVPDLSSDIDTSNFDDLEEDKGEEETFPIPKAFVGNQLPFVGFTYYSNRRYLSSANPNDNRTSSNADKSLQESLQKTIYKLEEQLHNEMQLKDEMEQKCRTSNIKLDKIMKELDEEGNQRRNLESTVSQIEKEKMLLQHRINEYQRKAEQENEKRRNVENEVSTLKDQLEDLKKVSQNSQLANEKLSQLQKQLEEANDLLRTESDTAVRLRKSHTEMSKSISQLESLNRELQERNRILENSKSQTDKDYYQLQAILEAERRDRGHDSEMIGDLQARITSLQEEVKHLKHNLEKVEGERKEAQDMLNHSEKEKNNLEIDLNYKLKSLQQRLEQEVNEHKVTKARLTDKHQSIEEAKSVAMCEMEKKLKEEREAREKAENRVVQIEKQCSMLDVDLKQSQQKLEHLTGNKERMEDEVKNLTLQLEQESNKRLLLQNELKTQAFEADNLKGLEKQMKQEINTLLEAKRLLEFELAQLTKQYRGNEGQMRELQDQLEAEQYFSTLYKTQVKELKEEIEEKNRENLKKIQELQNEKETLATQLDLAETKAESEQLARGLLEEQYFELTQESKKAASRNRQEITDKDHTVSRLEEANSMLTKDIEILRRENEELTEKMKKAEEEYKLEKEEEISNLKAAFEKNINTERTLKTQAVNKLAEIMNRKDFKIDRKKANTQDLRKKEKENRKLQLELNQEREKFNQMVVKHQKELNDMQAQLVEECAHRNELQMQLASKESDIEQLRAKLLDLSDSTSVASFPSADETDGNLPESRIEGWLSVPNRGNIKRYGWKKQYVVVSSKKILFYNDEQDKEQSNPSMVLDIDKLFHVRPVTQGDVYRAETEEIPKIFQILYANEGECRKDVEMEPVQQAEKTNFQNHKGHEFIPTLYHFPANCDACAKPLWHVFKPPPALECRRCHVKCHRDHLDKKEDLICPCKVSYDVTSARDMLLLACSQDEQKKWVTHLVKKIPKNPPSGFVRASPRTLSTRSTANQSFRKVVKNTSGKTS
SMILES,pKi [1],pKi [2]
"CC1=C(C(=O)Nc2ccc3cnccc3c2)C(c2ccc(Br)cc2)n2nc(CO)cc2N1 (single isomer, unassigned) [Example 61A, 7-(4-bromophenyl)-2-(hydroxymethyl)-N-(isoquinolin-6-yl)-5-methyl-4,7-dihydropyrazolo[1,5-a]pyrimidine-6-carboxamide]",> 7.30,> 7.30
"CC1=C(C(=O)Nc2ccc3cnccc3c2)C(c2ccc(C(F)(F)F)c(F)c2)n2nc(CCN(C)C)cc2N1 (centres unmarked) [Example 37, 2-(2-(dimethylamino)ethyl)-7-(3-fluoro-4-(trifluoromethyl)phenyl)-N-(isoquinolin-6-yl)-5-methyl-4,7-dihydropyrazolo[1,5-a]pyrimidine-6-carboxamide]",> 7.30,> 7.30
"CC1=C(C(=O)Nc2ccc3cnccc3c2)C(c2ccc(C(F)(F)F)c(F)c2F)n2nc(CO)cc2N1 (centres unmarked) [Example 56, 7-(2,3-difluoro-4-(trifluoromethyl)phenyl)-2-(hydroxymethyl)-N-(isoquinolin-6-yl)-5-methyl-4,7-dihydropyrazolo[1,5-a]pyrimidine-6-carboxamide]",> 7.30,> 7.30
"COC1CN(Cc2cc3n(n2)C(c2ccc(C(F)(F)F)c(F)c2)C(C(=O)Nc2ccc4cnccc4c2)=C(C)N3)C1 (centres unmarked) [Example 100, 7-(3-fluoro-4-(trifluoromethyl)phenyl)-N-(isoquinolin-6-yl)-2-((3-methoxyazetidin-1-yl)methyl)-5-methyl-4,7-dihydropyrazolo[1,5-a]pyrimidine-6-carboxamide]",> 7.30,> 7.30
"CC1=C(C(=O)Nc2ccc3[nH]ncc3c2)C(c2ccc(C(F)(F)F)cc2F)n2nnnc2N1 (single isomer, unassigned) [Example 26B, 7-(2-fluoro-4-(trifluoromethyl)phenyl)-N-(1H-indazol-5-yl)-5-methyl-4,7-dihydrotetrazolo[1,5-a]pyrimidine-6-carboxamide]",6.30 to 7.30,6.30 to 7.30
"CC1=C(C(=O)Nc2ccc3cnccc3c2)C(c2ccc(C(F)(F)F)c(F)c2)n2nc(CN3CCOCC3)cc2N1 (centres unmarked) [Example 95, 7-(3-fluoro-4-(trifluoromethyl)phenyl)-N-(isoquinolin-6-yl)-5-methyl-2-(morpholinomethyl)-4,7-dihydropyrazolo[1,5-a]pyrimidine-6-carboxamide]",> 7.30,> 7.30
"CC1=C(C(=O)Nc2ccc3[nH]ncc3c2)C(c2ccc(C(F)(F)F)c(F)c2)n2nnnc2N1 (single isomer, unassigned) [Example 25B, 7-(3-fluoro-4-(trifluoromethyl)phenyl)-N-(1H-indazol-5-yl)-5-methyl-4,7-dihydrotetrazolo[1,5-a]pyrimidine-6-carboxamide]",6.30 to 7.30,6.30 to 7.30
"CC1=C(C(=O)Nc2ccc3cnccc3c2)C(c2ccc(C)c(F)c2)n2nc(CN(C)C)cc2N1 (single isomer, unassigned) [Example 110B, 2-((dimethylamino)methyl)-7-(3-fluoro-4-methylphenyl)-N-(isoquinolin-6-yl)-5-methyl-4,7-dihydropyrazolo[1,5-a]pyrimidine-6-carboxamide]",> 7.30,> 7.30
"CC1=C(C(=O)Nc2ccc3cnccc3c2)C(C2Cc3ccccc3C2)n2nc(CN(C)C)cc2N1 (single isomer, unassigned) [Example 124b, 7-(2,3-dihydro-1H-inden-2-yl)-2-((dimethylamino)methyl)-N-(isoquinolin-6-yl)-5-methyl-4,7-dihydropyrazolo[1,5-a]pyrimidine-6-carboxamide]",> 7.30,> 7.30
"O=C(Nc1ccc2cnccc2c1)C1=C(C2CC2)Nc2cc(CO)nn2C1c1ccc(C(F)(F)F)c(F)c1 (centres unmarked) [Example 118, 5-cyclopropyl-7-(3-fluoro-4-(trifluoromethyl)phenyl)-2-(hydroxymethyl)-N-(isoquinolin-6-yl)-4,7-dihydropyrazolo[1,5-a]pyrimidine-6-carboxamide]",> 7.30,> 7.30
"CC1=C(C(=O)Nc2ccc3cnccc3c2)C(c2ccc(C(F)(F)F)c(F)c2)n2nc(C(=O)N(C)CCN(C)C)cc2N1 (centres unmarked) [Example 80, N2-(2-(dimethylamino)ethyl)-7-(3-fluoro-4-(trifluoromethyl)phenyl)-N6-(isoquinolin-6-yl)-N2,5-dimethyl-4,7-dihydropyrazolo[1,5-a]pyrimidine-2,6-dicarboxamide]",> 7.30,> 7.30
"CC1=C(C(=O)Nc2ccc3[nH]ncc3c2)C(c2ccc(C)cc2)n2nc(CO)cc2N1 (centres unmarked) [Example 67, 2-(hydroxymethyl)-N-(1H-indazol-5-yl)-5-methyl-7-(p-tolyl)-4,7-dihydropyrazolo[1,5-a]pyrimidine-6-carboxamide]",> 7.30,> 7.30
"CC1=C(C(=O)Nc2ccc3cnccc3c2)C(c2ccc(C(F)(F)F)c(F)c2)n2nc(CN(C)C)cc2N1 (single isomer, unassigned) [Example 94A, 2-((dimethylamino)methyl)-7-(3-fluoro-4-(trifluoromethyl)phenyl)-N-(isoquinolin-6-yl)-5-methyl-4,7-dihydropyrazolo[1,5-a]pyrimidine-6-carboxamide]",6.30 to 7.30,6.30 to 7.30
"CC1=C(C(=O)Nc2ccc3cnccc3c2)C(C2COc3ccccc3O2)n2nc(CO)cc2N1 (single isomer, unassigned) [Example 72C, 7-(2,3-dihydrobenzo[b][1,4]dioxin-2-yl)-2-(hydroxymethyl)-N-(isoquinolin-6-yl)-5-methyl-4,7-dihydropyrazolo[1,5-a]pyrimidine-6-carboxamide]",6.30 to 7.30,6.30 to 7.30
"CC1=C(C(=O)Nc2ccc3cnccc3c2)C(c2ccc(Cl)cc2)n2nc(CO)cc2N1 (single isomer, unassigned) [Example 62A, 7-(4-chlorophenyl)-2-(hydroxymethyl)-N-(isoquinolin-6-yl)-5-methyl-4,7-dihydropyrazolo[1,5-a]pyrimidine-6-carboxamide]",> 7.30,> 7.30
"CSc1cc2n(n1)C(c1ccc(C(F)(F)F)c(F)c1)C(C(=O)Nc1ccc3cnccc3c1)=C(C)N2 (centres unmarked) [Example 117, 7-(3-fluoro-4-(trifluoromethyl)phenyl)-N-(isoquinolin-6-yl)-5-methyl-2-(methylthio)-4,7-dihydropyrazolo[1,5-a]pyrimidine-6-carboxamide]",> 7.30,> 7.30
"CC1=C(C(=O)Nc2ccc3cnccc3c2)C(c2ccc(C(F)(F)F)c(F)c2)n2nc(C(=O)NCCN3CCCCC3)cc2N1 (single isomer, unassigned) [77A]",< 6.30,< 6.30
"CC1=C(C(=O)Nc2ccc3[nH]ncc3c2)C(c2ccc(F)cc2)n2nnnc2N1 (single isomer, unassigned) [Example 23B, 7-(4-fluorophenyl)-N-(1H-indazol-5-yl)-5-methyl-4,7-dihydrotetrazolo[1,5-a]pyrimidine-6-carboxamide]",6.30 to 7.30,6.30 to 7.30
"CC1=C(C(=O)Nc2ccc3cnccc3c2)C(c2ccc(C(F)(F)F)cc2)n2nc(CO)cc2N1 (single isomer, unassigned) [Example 43B, 2-(hydroxymethyl)-N-(isoquinolin-6-yl)-5-methyl-7-(4-(trifluoromethyl)phenyl)-4,7-dihydropyrazolo[1,5-a]pyrimidine-6-carboxamide]",> 7.30,> 7.30
"CC1=C(C(=O)Nc2ccc3cnccc3c2)C(c2ccc(C(F)(F)F)c(F)c2)n2nc(CN(C)CC3CCN(C)CC3)cc2N1 (single isomer, unassigned) [Example 104A, 7-(3-fluoro-4-(trifluoromethyl)phenyl)-N-(isoquinolin-6-yl)-5-methyl-2-((methyl((1-methylpiperidin-4-yl)methyl)amino)methyl)-4,7-dihydropyrazolo[1,5-a]pyrimidine-6-carboxamide]",> 7.30,> 7.30
"COc1ccc(-c2cc3n(n2)C(c2ccc(F)cc2)C(C(=O)Nc2ccc4[nH]ncc4c2)=C(C)N3)cc1 (centres unmarked) [Example 20, 7-(4-fluorophenyl)-N-(1H-indazol-5-yl)-2-(4-methoxyphenyl)-5-methyl-4,7-dihydropyrazolo[1,5-a]pyrimidine-6-carboxamide]",> 7.30,> 7.30
"CC1=C(C(=O)Nc2ccc3cnccc3c2)C(c2ccc(C(F)(F)F)c(F)c2)n2nc(NC(=O)c3ccc(CN(C)C)cc3)cc2N1 (single isomer, unassigned) [Example 137A, 2-(4-((Dimethylamino)methyl)benzamido)-7-(3-fluoro-4-(trifluoromethyl)-phenyl)-N-(isoquinolin-6-yl)-5-methyl-4,7-dihydropyrazolo[1,5-a]pyrimidine-6-carboxamide]",< 6.30,< 6.30
"CC1=C(C(=O)Nc2ccc3[nH]ncc3c2)C(c2ccc(C(F)(F)F)cc2)n2nc(C(=O)O)cc2N1 (centres unmarked) [Example 73, 6-((1H-indazol-5-yl)carbamoyl)-5-methyl-7-(4-(trifluoromethyl)phenyl)-4,7-dihydropyrazolo[1,5-a]pyrimidine-2-carboxylic acid]",> 7.30,> 7.30
"CC1=C(C(=O)Nc2ccc3cnccc3c2)C(c2ccc(C(F)(F)F)c(F)c2)n2nc(C(=O)NCCN3CCCCC3)nc2N1 (centres unmarked) [Example 129, 7-(3-fluoro-4-(trifluoromethyl)phenyl)-N6-(isoquinolin-6-yl)-5-methyl-N2-(2-(piperidin-1-yl)ethyl)-4,7-dihydro-[1,2,4]triazolo[1,5-a]pyrimidine-2,6-dicarboxamide]",> 7.30,> 7.30
"CC1=C(C(=O)Nc2ccc3[nH]ncc3c2)C(c2ccc(F)cc2)n2nc(C(=O)O)cc2N1 (centres unmarked) [Example 75, 6-((1H-indazol-5-yl)carbamoyl)-7-(4-fluorophenyl)-5-methyl-4,7-dihydropyrazolo[1,5-a]pyrimidine-2-carboxylic acid]",> 7.30,> 7.30
